target: T1, Recombinant human HSD17B13 enzyme (Homo sapiens, UniProt Q7Z5P4); experiment: HSD17b13 NAD(P)H-Glo biochemical assay; details: 50 uM estradiol, 1 mM NAD+, NAD(P)H-Glo luminescence; read-out: HSD17β13 IC50
T1 sequence (Q7Z5P4 20-300): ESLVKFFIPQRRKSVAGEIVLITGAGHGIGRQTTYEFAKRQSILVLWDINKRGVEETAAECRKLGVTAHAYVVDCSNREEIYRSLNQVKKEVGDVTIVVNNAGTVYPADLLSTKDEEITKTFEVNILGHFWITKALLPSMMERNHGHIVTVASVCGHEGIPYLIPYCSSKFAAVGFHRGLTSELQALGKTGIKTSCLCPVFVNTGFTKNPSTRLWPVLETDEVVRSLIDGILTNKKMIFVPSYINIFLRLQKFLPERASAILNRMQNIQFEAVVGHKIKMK
Description: Example B-1: HSD17b13 NAD(P)H-Glo Biochemical Assay
Recombinant human HSD17B13 enzyme. Substrate: estradiol (Sigma β-Estradiol E8875), 100 mM in DMSO. Cofactor: NAD+ Grade I free acid (Sigma 10127965001), 20 mM in H2O. Assay buffer final concentration: 20 mM Tris pH7.4 with 0.002% Tween-20 and 0.02% BSA. Assay performed in 384 well solid bottom plate (Corning 3570). Enzymatic activity detected by NAD(P)H-Glo™ Detection System (Promega G9062).
Inhibitor compounds were serially diluted in DMSO and then further diluted in assay buffer to a 10× concentration consisting of 1% DMSO.
HSD17b13 enzyme was diluted in 1× assay buffer to the desired enzyme concentration based on the specific activity of the enzyme lot. 20 uL of diluted enzyme was added to each well along with 2.5 uL of 10× inhibitor solution. Assay plate was incubated at RT for 20 minutes, and then 2.5 uL of a 10× substrate/cofactor mix was added to each well for a final concentration of 50 uM estradiol and 1 mM NAD+. Assay plate was incubated at 37° C. for 3 hours. NAD(P)H-Glo™ Detection System reagents were prepared according to manufacturer's specifications, and 25 uL was added to each well. After incubating for 1 hour at RT, luminescence was measured.

Row | IC50 [nM] | Compound
1 | < 100 | Oc1c(F)c(-c2n[nH]c3cc(N4CCOCC45CC5)ncc23)cc(C(F)(F)F)c1F [Compound 11.03, 3-(6-(7-Oxa-4-azaspiro[2.5]octan-4-yl)-1H-pyrazolo[4,3-c]pyridin-3-yl)-2,6-difluoro-5-(trifluoromethyl)phenol]
2 | < 100 | Cn1nc(-c2cc(C(F)(F)F)c(F)c(O)c2F)c2cnc(N3CCNCC34CC4)cc21 [Compound 9.111, 2,6-Difluoro-3-(1-methyl-6-(4,7-diazaspiro[2.5]octan-4-yl)-1H-pyrazolo[4,3-c]pyridin-3-yl)-5-(trifluoromethyl)phenol]
3 | 100 to 1000 | CS(=O)(=O)N1CC=C(c2cc3[nH]nc(-c4cc(O)c(F)c(C(F)(F)F)c4)c3cn2)CC1 [Compound 14.03, 2-Fluoro-5-(6-(1-(methylsulfony1)-1,2,3,6-tetrahydropyridin-4-yl)-1H-pyrazolo[4,3-c]pyridin-3-yl)-3-(trifluoromethyl)phenol]
4 | < 100 | CN(c1cc2c(cc1F)c(-c1cc(C(F)(F)F)c(F)c(O)c1F)nn2C)C1CCOCC1 [Compound 9.116, 2,6-Difluoro-3-(5-fluoro-1-methyl-6-(methyl(tetrahydro-2H-pyran-4-yl)amino)-1H-indazol-3-yl)-5-(trifluoromethyl)phenol]
5 | < 100 | Cn1nc(-c2cc(C(F)(F)F)c(F)c(O)c2F)c2cnc(N3CCN(S(C)(=O)=O)CC34CC4)cc21 [Compound 9.74, 2,6-Difluoro-3-(1-methyl-6-(7-(methylsulfonyl)-4,7-diazaspiro[2.5]octan-4-yl)-1H-pyrazolo[4,3-c]pyridin-3-yl)-5-(trifluoromethyl)phenol]
6 | 100 to 1000 | Oc1cc(-c2nc3ccc(-c4ccc(O)c(Cl)c4)cc3o2)ccc1F [Compound 3.01, 2-Chloro-4-(2-(4-fluoro-3-hydroxyphenyl)benzo[d]oxazol-6-yl)phenol]
7 | 100 to 1000 | Cn1nc(-c2cc(C(F)(F)F)c(F)c(O)c2F)c2cnc(N3CCC4(CCN4)CC3)nc21 [Compound 18.24, 2,6-Difluoro-3-(1-methyl-6-(1,7-diazaspiro[3.5]nonan-7-yl)-1H-pyrazolo[3,4-d]pyrimidin-3-y1)-5-(trifluoromethyl)phenol]
8 | < 100 | Cn1nc(-c2cc(C(F)(F)F)c(F)c(O)c2F)c2cnc(N3CCC4(CCOCC4)CC3)nc21 [Compound 18.36, 2,6-Difluoro-3-(1-methyl-6-(3-oxa-9-azaspiro[5.5]undecan-9-yl)-1H-pyrazolo[3,4-d]pyrimidin-3-y1)-5-(trifluoromethyl)phenol]
9 | < 100 | Cn1nc(-c2cc(C(F)(F)F)c(F)c(O)c2F)c2cnc(N3CCN(S(C)(=O)=O)C4(CCOCC4)C3)nc21 [Compound 18.85, 2,6-Difluoro-3-(1-methyl-6-(1-(methylsulfony1)-9-oxa-1,4-diazaspiro[5.5]undecan-4-y1)-1H-pyrazolo[3,4-d]pyrimidin-3-y1)-5-(trifluoromethyl)phenol]
10 | 100 to 1000 | CS(=O)(=O)N1CCN(c2ccc3oc(-c4ccc(F)c(O)c4)nc3c2)CC1 [Compound 4, 2-Fluoro-5-(5-(4-(methylsulfonyl)piperazin-1-yl)benzo[d]oxazol-2-yl)phenol]
11 | < 100 | Cn1nc(-c2cc(C(F)(F)F)c(F)c(O)c2F)c2cnc(N3CCCC(c4ccncn4)C3)nc21 (stereo not shown) [Compound 18.71, 2,6-Difluoro-3-(1-methyl-6-(3-(pyrimidin-4-y1)piperidin-1-yl)-1H-pyrazolo[3,4-d]pyrimidin-3-y1)-5-(trifluoromethyl)phenol]
12 | 100 to 1000 | CS(=O)(=O)N1CCN(c2ccc3oc(-c4cc(O)c(F)c(F)c4)nc3c2)CC1 [Compound 5.02, 2,3-Difluoro-5-(5-(4-(methylsulfonyl)piperazin-1-yl)benzo[d]oxazol-2-yl)phenol]
13 | 100 to 1000 | Oc1ccc(-c2ccc3oc(-c4ccc(F)c(O)c4)nc3c2)cc1 [Compound 3.02, 2-Fluoro-5-(5-(4-hydroxyphenyl)benzo[d]oxazol-2-yl)phenol]
14 | 100 to 1000 | Cn1nc(-c2cc(C(F)(F)F)c(F)c(O)c2F)c2cnc(N3CC4CC(C3)N4S(C)(=O)=O)nc21 [Compound 18.74, 2,6-Difluoro-3-(1-methyl-6-(6-(methylsulfony1)-3,6-diazabicyclo[3.1.1]heptan-3-yl)-1H-pyrazolo[3,4-d]pyrimidin-3-y1)-5-(trifluoromethyl)phenol]
15 | < 100 | Cn1nc(-c2cc(C(F)(F)F)c(F)c(O)c2F)c2c(F)cc(N3CCOCC34CC4)cc21 [Compound 9.118, 2,6-Difluoro-3-(4-fluoro-1-methyl-6-(7-oxa-4-azaspiro[2.5]octan-4-yl)-1H-indazol-3-yl)-5-(trifluoromethyl)phenol]
16 | 100 to 1000 | CS(=O)(=O)NC1CN(C(=O)c2ccc3oc(-c4cc(O)c(F)c(F)c4)nc3c2)C1 [Compound 1.05, N-(1-(2-(3,4-Difluoro-5-hydroxyphenyl)benzo[d]oxazole-5-carbonyl)azetidin-3-yl)methanesulfonamide]
17 | 1000 to 30000 | Cn1nc(-c2cc(C(F)(F)F)cc(O)c2F)c2ccc(N3CCN(S(C)(=O)=O)CC3)cc21 [Compound 9.02, 2-Fluoro-3-(1-methyl-6-(4-(methylsulfonyl)piperazin-1-yl)-1H-indazol-3-yl)-5-(trifluoromethyl)phenol]
18 | < 100 | O=C(NC12CC(C1)C2)c1ccc2oc(-c3cc(C(F)(F)F)cc(O)c3F)nc2c1 [Compound 1.12, N-(Bicyclo[1.1.1]pentan-1-yl)-2-(2-fluoro-3-hydroxy-5-(trifluoromethyl)phenyl)benzo[d]oxa-zole-5-carboxamide]
19 | < 100 | Cn1nc(-c2cc(C(F)(F)F)c(F)c(O)c2F)c2cnc(N(Cc3ccccc3)C3CCOCC3)cc21 [Compound 9.123, 3-(6-(Benzyl(tetrahydro-2H-pyran-4-yl)amino)-1-methyl-1H-pyrazolo[4,3-c]pyridin-3-yl)-2,6-difluoro-5-(trifluoromethyl)phenol]
20 | < 100 | CNC(=O)N1CCN(c2ncc3c(-c4cc(C(F)(F)F)c(F)c(O)c4F)nn(C)c3n2)CC12CCC2 [Compound 20.01, 8-(3-(2,4-Difluoro-3-hydroxy-5-(trifluoromethyl)phenyl)-1-methyl-1H-pyrazolo[3,4-d]pyrimidin-6-yl)-N-methyl-5,8-diazaspiro[3.5]nonane-5-carboxamide]
21 | < 100 | CN1CCN(c2ncc3c(-c4cc(C(F)(F)F)c(F)c(O)c4F)nn(C)c3n2)C(c2ccccc2)C1 (stereo not shown) [Compound 18.53, 2,6-Difluoro-3-(1-methyl-6-(4-methyl-2-phenylpiperazin-1-yl)-1H-pyrazolo[3,4-d]pyrimidin-3-yl)-5-(trifluoromethyl)phenol]
22 | 100 to 1000 | CS(=O)(=O)N1CC=C(c2ccc3c(-c4cc(O)c(F)c(C(F)(F)F)c4)n[nH]c3c2)CC1 [Compound 14, 2-Fluoro-5-(6-(1-(methylsulfonyl)-1,2,3,6-tetrahydropyridin-4-yl)-1H-indazol-3-yl)-3-(trifluoromethyl)phenol]
23 | < 100 | COC1(CN(C)c2cc3c(cn2)c(-c2cc(C(F)(F)F)c(F)c(O)c2F)nn3C)CCC1 [Compound 9.86, 2,6-Difluoro-3-(6-(((1-methoxycyclobutyl)methyl)(methyl)amino)-1-methyl-1H-pyrazolo[4,3-c]pyridin-3-yl)-5-(trifluoromethyl)phenol]
24 | < 100 | CN1CCC2(CC1)CCN(c1ncc3c(-c4cc(C(F)(F)F)c(F)c(O)c4F)nn(C)c3n1)CC2 [Compound 18.47, 2,6-Difluoro-3-(1-methyl-6-(9-methyl-3,9-diazaspiro[5.5]undecan-3-y1)-1H-pyrazolo[3,4-d]pyrimidin-3-y1)-5-(trifluoromethyl)phenol]
25 | < 100 | Cn1nc(-c2cc(C(F)(F)F)c(F)c(O)c2F)c2cnc(N3CCOC(c4cccnc4)C3)nc21 (stereo not shown) [Compound 18.55, 2,6-Difluoro-3-(1-methyl-6-(2-(pyridin-3-y1)morpholino)-1H-pyrazolo[3,4-d]pyrimidin-3-y1)-5-(trifluoromethyl)phenol]
26 | 100 to 1000 | Cn1nc(-c2cc(C(F)(F)F)c(F)c(O)c2F)c2cnc(N3CCOC(CO)C3)nc21 (stereo not shown) [Compound 18.02, 2,6-Difluoro-3-(6-(2-(hydroxymethyl)morpholino)-1-methyl-1H-pyrazolo[3,4-d]pyrimidin-3-y1)-5-(trifluoromethyl)phenol]
27 | < 100 | COC1CCN(c2cc3c(cn2)c(-c2cc(C(F)(F)F)c(F)c(O)c2F)nn3C)C2(CC2)C1 (stereo not shown) [Compound 9.83, 2,6-Difluoro-3-(6-(7-methoxy-4-azaspiro[2.5]octan-4-yl)-1-methyl-1H-pyrazolo[4,3-c]pyridin-3-yl)-5-(trifluoromethyl)phenol]
28 | 100 to 1000 | Cn1nc(-c2cc(C(F)(F)F)c(F)c(O)c2F)c2cnc(N3CC(C)(C#N)C3)nc21 [Compound 9.09, 1-(3-(2,4-Difluoro-3-hydroxy-5-(trifluoromethyl)phenyl)-1-methyl-1H-pyrazolo[3,4-d]pyrimidin-6-yl)-3-methylazetidine-3-carbonitrile]
